Reference: US6242443A, “1,2,4-benzothiadiazine derivatives, their preparation and use” (Novo Nordisk AIS, priority 1996, dated 2001)

Test system: rat aorta rings
Assay: Relaxation of rat aorta rings (phenylephrine-contracted)
Format: cell-based
Conditions: rat thoracic aorta rings contracted with phenylephrine to 80% of maximum response, cumulative addition; read-out: EC50 (concentration required to evoke a 50% relaxation of the tissue)
Protocol: The activity of the compounds as potassium channel openers can also be measured as relaxation of rat aortas rings according to the following procedure:
A section of rat thoracic aorta between the aortic arch and the diaphragm was dissected out and mounted as ring preparations as described by Taylor P. D. et al, Brit J. Pharmacol, 111, 42-48 (1994).
After a 45 min. equilibration period under a tension of 2 g, the preparations were contracted to achieve 80% of the maximum response using the required concentration of phenylephrine. When the phenylephrine response reached a plateau, potential vasodilatory agents were added cumulatively to the bath in small volumes using half log molar increments at 2 min intervals. Relaxation was expressed at the percentage of the contracted tension. The potency of a compound was expressed as the concentration required to evoke a 50% relaxation of the tissue.

| Compound | EC50 |
| --- | --- |
| CC(C)NC1=NS(=O)(=O)c2ccc(C(F)(F)F)cc2N1 [Example 50, 3-Isopropylamino-6-trifluoromethyl-4H-1,2,4-benzothiadiazine 1,1-dioxide] | 5.2 µM |
| C[C@H](NC1=NS(=O)(=O)c2cc(I)ccc2N1)c1ccccc1 [Example 88, 7-Iodo-3-(S)-(1-phenylethyl)amino-4H-1,2,4-benzothiadiazine 1,1-dioxide] | 32.7 µM |
| CCNC1=NS(=O)(=O)c2cc(Br)ccc2N1 [Example 94, 7-Bromo-3-ethylamino-4H-1,2,4-benzothiadiazine 1,1-dioxide] | 4.8 µM |
| CCNC1=NS(=O)(=O)c2cc(F)ccc2N1 [Example 101, 3-Ethylamino-7-fluoro-4H-1,2,4-benzothiadiazine 1,1-dioxide] | 14.1 µM |

Test system: RIN 5F cells
Assay: 86Rb+ efflux from a β-cell line (increased Rb-efflux in RIN 5F cells)
Format: cell-based
Conditions: 1 h at room temperature, pH 7.1
Protocol: ^86 Rb^+ efflux from a β-cell line
The RIN 5F cell line was grown in RPMI 1640 with Glutamax I, supplemented with 10% fetal calf serum (from GibcoBRL, Scotland, UK) and maintained in an atmosphere of 5% CO2 /95% air at 37° C. The cells were detached with a Trypsin-EDTA solution (from GibcoBRL, Scotland, UK), resuspended in medium, added 1 mCi/ml ^86 Rb^+ and replated into microtiter plates (96 well cluster 3596, sterile, from Costar Corporation,MA, USA) at a density of 50000 cells/well in 100 μl/well, and grown 24 hours before use in assay.
The plates were washed 4 times with Ringer buffer (150 mM NaCl, 10 mM Hepes, 3.0 mM KCl, 1.0 mM CaCl2, 20 mM Sucrose, pH 7.1). Eighty μl Ringer buffer and 1 μl control- or test compound dissolved in DMSO was added. After incubation 1 h at room temperature with a lid, 50 μl of the supernatant was transferred to PicoPlates (Packard Instrument Company, CT, USA) and 100 μl MicroScint40 (Packard Instrument Company, CT, USA) added. The plates were counted in TopCount (Packard Instrument Company, CT, USA) for 1 min/well at the ^32 P program.
The calculation of EC50 and Emax was done by SlideWrite (Advanced Graphics Software, Inc., CA, USA) using a four parameter logistic curve: y=(a-d)/(1+(x/c)^b)+d, where a=the activity estimated at concentration zero, b=a slope factor, c=the concentration at the middle of the curve and, d=the activity estimated at infinite concentration. EC50 =c and Emax =d, when the curve is turned of at infinite concentrations.

| Compound | EC50 |
| --- | --- |
| CC(C)C(C)NC1=NS(=O)(=O)c2cc(Cl)c(Cl)cc2N1 (stereo not shown) [Example 26, 6,7-Dichloro-3-(1,2-dimethylpropyl)amino-4H-1,2,4-benzothiadiazine 1,1-dioxide] | 12.9 µM |
| O=S1(=O)N=C(NCC2CCCCC2)Nc2ccc(Cl)cc21 [Example 66, 7-Chloro-3-(cyclohexylmethyl)amino-4H-1,2,4-benzothiadiazine 1,1-dioxide] | 9.4 µM |
| O=S1(=O)N=C(NCc2ccccc2)Nc2ccc(I)cc21 [Example 86, 3-Benzylamino-7-iodo-4H-1,2,4-benzothiadiazine 1,1-dioxide] | 13 µM |
